Calls of active or inactive are those of the source.
Assays:
[1] = Volume of distribution at steady state in Sprague-Dawley rat at 3 mg/kg administered as single iv bolus by LC-MS/MS analysis; format: ADME, organism-based; details: in vivo, read-out: Vdss
[2] = target: Sodium channel protein type 9 subunit alpha (Homo sapiens, UniProt Q15858); test: Inhibition of human Nav1.7 expressed in CHO-K1 cells at -120 mV holding potential incubated over 5 mins measured at 15 secs interval by Qpatch clamp assay; format: cell-based
[3] = Clearance in Sprague-Dawley rat administered as single iv bolus by LC-MS/MS analysis; format: ADME, organism-based; details: in vivo
[4] = Volume of distribution at steady state in Sprague-Dawley rat administered as single iv bolus by LC-MS/MS analysis; format: ADME, organism-based; details: in vivo, read-out: Vdss
[5] = AUC in Sprague-Dawley rat at 10 mg/kg administered as single dose via oral gavage by LC-MS/MS analysis; format: ADME, organism-based; details: in vivo
[6] = Oral bioavailability in Sprague-Dawley rat at 10 mg/kg administered as single dose via gavage by LC-MS/MS analysis; format: ADME, organism-based; details: in vivo
[7] = Initial plasma concentration in Sprague-Dawley rat at 3 mg/kg administered as single iv bolus by LC-MS/MS analysis; format: ADME, organism-based
[8] = Half life in Sprague-Dawley rat at 3 mg/kg administered as single iv bolus by LC-MS/MS analysis; format: ADME, organism-based; details: in vivo
[9] = Clearance in Sprague-Dawley rat at 3 mg/kg administered as single iv bolus by LC-MS/MS analysis; format: ADME, organism-based; details: in vivo
[10] = AUC (0 to last) in Sprague-Dawley rat at 3 mg/kg administered as single iv bolus by LC-MS/MS analysis; format: ADME, organism-based; design: dose 3 mg/kg, route intravenous, time 0 - last; details: in vivo
[11] = Cmax in Sprague-Dawley rat at 10 mg/kg administered as single dose via oral gavage by LC-MS/MS analysis; format: ADME, organism-based; design: dose 10 mg/kg, route oral; details: in vivo
[12] = Tmax in Sprague-Dawley rat at 10 mg/kg administered as single dose via oral gavage by LC-MS/MS analysis; format: ADME, organism-based; details: in vivo
[13] = Half life in Sprague-Dawley rat at 10 mg/kg administered as single dose via oral gavage by LC-MS/MS analysis; format: ADME, organism-based; details: in vivo
[14] = AUC (0 to last) in Sprague-Dawley rat at 10 mg/kg administered as single dose via oral gavage by LC-MS/MS analysis; format: ADME, organism-based; design: dose 10 mg/kg, route oral, time 0 - last; details: in vivo
Rattus norvegicus [15] = test: Unbound AUC (0 to last) in Sprague-Dawley rat at 10 mg/kg administered as single dose via oral gavage by LC-MS/MS analysis; format: ADME, organism-based; details: in vivo
[16] = Dissociation constant, pKa of the compound; format: physicochemical
[17] = target: Sodium channel protein type 5 subunit alpha (Homo sapiens, UniProt Q14524); test: Inhibition of human Nav1.5 expressed in HEK293 cells at -120 mV holding potential incubated over 5 mins measured at 15 secs interval by Qpatch clamp assay; format: cell-based
[18] = target: Sodium channel protein type 4 subunit alpha (Homo sapiens, UniProt P35499); format: ADME
[19] = Fraction unbound in human plasma at 2 uM after 4 hrs by LC-MS/MS analysis; format: ADME, cell-free
[20] = Fraction unbound in rat plasma at 2 uM after 4 hrs by LC-MS/MS analysis; format: ADME, cell-free
[21] = Intrinsic clearance in human liver microsomes at 1 uM after 60 mins in presence of NADPH by LC-MS/MS analysis; format: ADME, microsome; details: read-out: CLH
[22] = Intrinsic clearance in rat liver microsomes at 1 uM after 60 mins in presence of NADPH by LC-MS/MS analysis; format: ADME, microsome; details: read-out: CLH
Rattus norvegicus [23] = test: Antinociceptive activity in Sprague-Dawley rat formalin-induced nociception model assessed as inhibition of formalin-induced flinches in phase 2 at 30 mg/kg, po administered via oral gavage 60 mins before formalin challenge measured for 1 hr post dose; format: functional, organism-based
Rattus norvegicus [24] = test: Antinociceptive activity in Sprague-Dawley rat formalin-induced nociception model assessed as inhibition of formalin-induced flinches in phase 1 at 30 mg/kg, po administered via oral gavage 60 mins before formalin challenge measured for 1 hr post dose; format: functional, organism-based
Rattus norvegicus [25] = test: Antiallodynic activity in Sprague-Dawley rat spinal nerve ligation model assessed as reduction in mechanical allodynia by measuring paw withdrawal threshold at 100 mg/kg, po measured at 2 hrs post dose; format: functional, organism-based
[26] = Plasma concentration in Sprague-Dawley rat spinal nerve ligation model at 100 mg/kg administered as single dose via oral gavage measured after 1 hr by LC-MS/MS analysis; format: ADME, organism-based
[27] = Plasma concentration in Sprague-Dawley rat spinal nerve ligation model at 100 mg/kg administered as single dose via oral gavage measured after 2 hrs by LC-MS/MS analysis; format: ADME, organism-based
[28] = Plasma concentration in Sprague-Dawley rat spinal nerve ligation model at 100 mg/kg administered as single dose via oral gavage measured after 4 hrs by LC-MS/MS analysis; format: ADME, organism-based
[29] = Unbound plasma concentration in Sprague-Dawley rat spinal nerve ligation model at 100 mg/kg administered as single dose via oral gavage measured after 1 hr by LC-MS/MS analysis; format: ADME, organism-based; details: in vivo
[30] = Unbound plasma concentration in Sprague-Dawley rat spinal nerve ligation model at 100 mg/kg administered as single dose via oral gavage measured after 2 hrs by LC-MS/MS analysis; format: ADME, organism-based; details: in vivo
[31] = Unbound plasma concentration in Sprague-Dawley rat spinal nerve ligation model at 100 mg/kg administered as single dose via oral gavage measured after 4 hrs by LC-MS/MS analysis; format: ADME, organism-based; details: in vivo
[32] = Drug uptake in Sprague-Dawley rat dorsal root ganglion at 100 mg/kg, ig measured after 2.5 hrs by LC-MS/MS analysis; format: ADME, organism-based; details: in vivo, po
Homo sapiens [33] = species on record: Homo sapiens; test: Selectivity ratio of IC50 for human Nav1.4 to IC50 for human Nav1.7 expressed in CHO-K1 cells; format: cell-based
Homo sapiens [34] = species on record: Homo sapiens; test: Selectivity ratio of IC50 for human Nav1.5 expressed in HEK293 cells to IC50 for human Nav1.7 expressed in CHO-K1 cells; format: cell-based
Cytochrome P450 1A2 = target: T1, Cytochrome P450 1A2 (Homo sapiens, UniProt P05177)
T1 sequence (P05177 whole entry): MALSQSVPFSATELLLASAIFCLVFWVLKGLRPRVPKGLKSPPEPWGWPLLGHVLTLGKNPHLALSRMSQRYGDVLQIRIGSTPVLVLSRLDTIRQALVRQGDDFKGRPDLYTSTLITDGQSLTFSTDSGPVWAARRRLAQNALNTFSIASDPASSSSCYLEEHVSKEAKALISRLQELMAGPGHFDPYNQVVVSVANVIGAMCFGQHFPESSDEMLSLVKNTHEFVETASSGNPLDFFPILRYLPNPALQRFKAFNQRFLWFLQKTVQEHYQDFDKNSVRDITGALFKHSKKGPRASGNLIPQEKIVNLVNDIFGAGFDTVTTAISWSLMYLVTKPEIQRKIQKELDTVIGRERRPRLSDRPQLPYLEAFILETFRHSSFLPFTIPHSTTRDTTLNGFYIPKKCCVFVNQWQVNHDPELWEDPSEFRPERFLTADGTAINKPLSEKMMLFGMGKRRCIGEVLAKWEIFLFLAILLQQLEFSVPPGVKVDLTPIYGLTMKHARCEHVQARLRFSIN

Cytochrome P450 2C9 = Cytochrome P450 2C9 (Homo sapiens, UniProt P11712)
Cytochrome P450 2C19 = Cytochrome P450 2C19 (Homo sapiens, UniProt P33261)
Cytochrome P450 2D6 = Cytochrome P450 2D6 (Homo sapiens, UniProt P10635)
Cytochrome P450 3A4 = Cytochrome P450 3A4 (Homo sapiens, UniProt P08684)
[35] = target: Voltage-gated inwardly rectifying potassium channel KCNH2 (Homo sapiens, UniProt Q12809)
in vitro [36] = details: human, Caco-2
in vitro [37] = details: human, Caco-2; remark: listed apart in the source
physchem [38] = details: buffer, pH 7.4
physchem [39] = details: buffer, pH 7.4; remark: listed apart in the source
[40] = Ratio of total drug level in iv dosed rat brain to plasma measured 2 hrs post dose; format: ADME, organism-based; details: read-out: BPR
[41] = AUC in Sprague-Dawley rat at 2 mg/kg administered as single dose via oral gavage by LC-MS/MS analysis; format: ADME, organism-based; details: in vivo
[42] = Initial plasma concentration in Sprague-Dawley rat at 0.5 mg/kg administered as single iv bolus by LC-MS/MS analysis; format: ADME, organism-based
[43] = Cmax in Sprague-Dawley rat at 2 mg/kg administered as single dose via oral gavage by LC-MS/MS analysis; format: ADME, organism-based; design: dose 2 mg/kg, route oral; details: in vivo
[44] = Half life in Sprague-Dawley rat at 2 mg/kg administered as single dose via oral gavage by LC-MS/MS analysis; format: ADME, organism-based; details: in vivo
Rattus norvegicus [45] = test: Unbound AUC (0 to last) in Sprague-Dawley rat at 2 mg/kg administered as single dose via oral gavage by LC-MS/MS analysis; format: ADME, organism-based; details: in vivo
[46] = Drug level in po dosed rat plasma treated with 5-chloro-4-(((1R,6R)-6-(ethylamino)-2-(4-fluorophenyl)cyclohex-2-enyl)methoxy)-2-fluoro-N-(thiazol-4-yl)benzenesulfonamide; format: ADME, organism-based; details: in vivo

Sequence of Sodium channel protein type 4 subunit alpha (P35499 whole entry): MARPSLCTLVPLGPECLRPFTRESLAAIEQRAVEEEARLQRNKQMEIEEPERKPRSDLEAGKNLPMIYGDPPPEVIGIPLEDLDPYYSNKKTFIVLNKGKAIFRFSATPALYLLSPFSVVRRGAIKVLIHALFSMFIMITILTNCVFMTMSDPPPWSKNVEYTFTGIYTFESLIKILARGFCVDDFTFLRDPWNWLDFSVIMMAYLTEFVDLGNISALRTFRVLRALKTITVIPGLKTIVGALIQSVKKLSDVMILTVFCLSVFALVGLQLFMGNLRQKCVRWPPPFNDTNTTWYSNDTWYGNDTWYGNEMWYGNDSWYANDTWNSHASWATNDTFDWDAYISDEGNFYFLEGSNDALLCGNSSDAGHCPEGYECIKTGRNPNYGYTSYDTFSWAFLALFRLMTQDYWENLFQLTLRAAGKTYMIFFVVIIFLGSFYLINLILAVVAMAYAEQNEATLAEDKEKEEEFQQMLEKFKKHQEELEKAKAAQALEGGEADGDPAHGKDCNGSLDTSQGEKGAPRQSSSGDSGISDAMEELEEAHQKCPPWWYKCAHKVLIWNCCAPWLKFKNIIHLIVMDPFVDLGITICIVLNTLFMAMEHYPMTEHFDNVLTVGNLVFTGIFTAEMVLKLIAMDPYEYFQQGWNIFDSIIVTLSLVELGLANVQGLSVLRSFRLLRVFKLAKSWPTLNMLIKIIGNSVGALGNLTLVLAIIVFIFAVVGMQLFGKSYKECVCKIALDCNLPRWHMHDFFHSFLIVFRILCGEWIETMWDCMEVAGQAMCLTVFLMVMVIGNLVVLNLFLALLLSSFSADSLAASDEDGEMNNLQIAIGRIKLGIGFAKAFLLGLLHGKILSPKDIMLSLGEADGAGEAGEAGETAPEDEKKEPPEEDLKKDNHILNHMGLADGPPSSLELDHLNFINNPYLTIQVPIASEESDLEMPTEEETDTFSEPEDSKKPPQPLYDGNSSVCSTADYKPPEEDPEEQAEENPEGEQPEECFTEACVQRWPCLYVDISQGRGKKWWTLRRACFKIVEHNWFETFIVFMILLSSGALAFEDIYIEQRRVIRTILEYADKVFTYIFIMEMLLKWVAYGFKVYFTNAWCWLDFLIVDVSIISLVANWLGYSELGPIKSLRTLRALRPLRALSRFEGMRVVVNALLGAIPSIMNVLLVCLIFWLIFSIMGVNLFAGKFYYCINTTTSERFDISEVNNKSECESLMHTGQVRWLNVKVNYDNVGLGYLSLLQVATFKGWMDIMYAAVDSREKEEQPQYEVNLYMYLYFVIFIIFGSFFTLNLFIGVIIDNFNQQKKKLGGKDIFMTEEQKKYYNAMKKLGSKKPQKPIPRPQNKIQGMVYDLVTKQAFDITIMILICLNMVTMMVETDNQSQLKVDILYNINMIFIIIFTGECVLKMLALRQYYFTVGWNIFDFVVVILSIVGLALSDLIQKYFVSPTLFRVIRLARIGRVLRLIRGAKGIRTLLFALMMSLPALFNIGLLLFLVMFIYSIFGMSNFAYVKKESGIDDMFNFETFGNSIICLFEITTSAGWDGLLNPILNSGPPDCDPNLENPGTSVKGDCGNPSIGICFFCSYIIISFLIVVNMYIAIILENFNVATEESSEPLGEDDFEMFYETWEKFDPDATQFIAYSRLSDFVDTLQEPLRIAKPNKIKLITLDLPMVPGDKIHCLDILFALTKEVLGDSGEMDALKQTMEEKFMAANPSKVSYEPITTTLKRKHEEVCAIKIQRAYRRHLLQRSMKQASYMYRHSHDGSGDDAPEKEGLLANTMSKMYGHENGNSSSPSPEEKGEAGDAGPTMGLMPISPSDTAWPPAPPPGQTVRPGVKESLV
Sequence of Cytochrome P450 3A4 (P08684 whole entry): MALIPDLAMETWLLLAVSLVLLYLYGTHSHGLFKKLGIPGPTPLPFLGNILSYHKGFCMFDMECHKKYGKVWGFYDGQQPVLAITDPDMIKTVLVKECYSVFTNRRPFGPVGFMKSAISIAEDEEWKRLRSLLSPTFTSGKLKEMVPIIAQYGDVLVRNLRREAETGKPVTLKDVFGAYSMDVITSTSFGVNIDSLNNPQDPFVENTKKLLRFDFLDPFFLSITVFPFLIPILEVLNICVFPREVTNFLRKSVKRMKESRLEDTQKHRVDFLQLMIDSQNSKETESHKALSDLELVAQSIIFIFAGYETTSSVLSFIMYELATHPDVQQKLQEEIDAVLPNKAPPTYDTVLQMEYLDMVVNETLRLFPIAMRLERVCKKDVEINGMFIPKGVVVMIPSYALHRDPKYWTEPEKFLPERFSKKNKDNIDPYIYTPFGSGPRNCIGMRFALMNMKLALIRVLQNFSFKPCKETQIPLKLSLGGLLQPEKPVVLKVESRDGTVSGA
Sequence of Sodium channel protein type 5 subunit alpha (Q14524 whole entry): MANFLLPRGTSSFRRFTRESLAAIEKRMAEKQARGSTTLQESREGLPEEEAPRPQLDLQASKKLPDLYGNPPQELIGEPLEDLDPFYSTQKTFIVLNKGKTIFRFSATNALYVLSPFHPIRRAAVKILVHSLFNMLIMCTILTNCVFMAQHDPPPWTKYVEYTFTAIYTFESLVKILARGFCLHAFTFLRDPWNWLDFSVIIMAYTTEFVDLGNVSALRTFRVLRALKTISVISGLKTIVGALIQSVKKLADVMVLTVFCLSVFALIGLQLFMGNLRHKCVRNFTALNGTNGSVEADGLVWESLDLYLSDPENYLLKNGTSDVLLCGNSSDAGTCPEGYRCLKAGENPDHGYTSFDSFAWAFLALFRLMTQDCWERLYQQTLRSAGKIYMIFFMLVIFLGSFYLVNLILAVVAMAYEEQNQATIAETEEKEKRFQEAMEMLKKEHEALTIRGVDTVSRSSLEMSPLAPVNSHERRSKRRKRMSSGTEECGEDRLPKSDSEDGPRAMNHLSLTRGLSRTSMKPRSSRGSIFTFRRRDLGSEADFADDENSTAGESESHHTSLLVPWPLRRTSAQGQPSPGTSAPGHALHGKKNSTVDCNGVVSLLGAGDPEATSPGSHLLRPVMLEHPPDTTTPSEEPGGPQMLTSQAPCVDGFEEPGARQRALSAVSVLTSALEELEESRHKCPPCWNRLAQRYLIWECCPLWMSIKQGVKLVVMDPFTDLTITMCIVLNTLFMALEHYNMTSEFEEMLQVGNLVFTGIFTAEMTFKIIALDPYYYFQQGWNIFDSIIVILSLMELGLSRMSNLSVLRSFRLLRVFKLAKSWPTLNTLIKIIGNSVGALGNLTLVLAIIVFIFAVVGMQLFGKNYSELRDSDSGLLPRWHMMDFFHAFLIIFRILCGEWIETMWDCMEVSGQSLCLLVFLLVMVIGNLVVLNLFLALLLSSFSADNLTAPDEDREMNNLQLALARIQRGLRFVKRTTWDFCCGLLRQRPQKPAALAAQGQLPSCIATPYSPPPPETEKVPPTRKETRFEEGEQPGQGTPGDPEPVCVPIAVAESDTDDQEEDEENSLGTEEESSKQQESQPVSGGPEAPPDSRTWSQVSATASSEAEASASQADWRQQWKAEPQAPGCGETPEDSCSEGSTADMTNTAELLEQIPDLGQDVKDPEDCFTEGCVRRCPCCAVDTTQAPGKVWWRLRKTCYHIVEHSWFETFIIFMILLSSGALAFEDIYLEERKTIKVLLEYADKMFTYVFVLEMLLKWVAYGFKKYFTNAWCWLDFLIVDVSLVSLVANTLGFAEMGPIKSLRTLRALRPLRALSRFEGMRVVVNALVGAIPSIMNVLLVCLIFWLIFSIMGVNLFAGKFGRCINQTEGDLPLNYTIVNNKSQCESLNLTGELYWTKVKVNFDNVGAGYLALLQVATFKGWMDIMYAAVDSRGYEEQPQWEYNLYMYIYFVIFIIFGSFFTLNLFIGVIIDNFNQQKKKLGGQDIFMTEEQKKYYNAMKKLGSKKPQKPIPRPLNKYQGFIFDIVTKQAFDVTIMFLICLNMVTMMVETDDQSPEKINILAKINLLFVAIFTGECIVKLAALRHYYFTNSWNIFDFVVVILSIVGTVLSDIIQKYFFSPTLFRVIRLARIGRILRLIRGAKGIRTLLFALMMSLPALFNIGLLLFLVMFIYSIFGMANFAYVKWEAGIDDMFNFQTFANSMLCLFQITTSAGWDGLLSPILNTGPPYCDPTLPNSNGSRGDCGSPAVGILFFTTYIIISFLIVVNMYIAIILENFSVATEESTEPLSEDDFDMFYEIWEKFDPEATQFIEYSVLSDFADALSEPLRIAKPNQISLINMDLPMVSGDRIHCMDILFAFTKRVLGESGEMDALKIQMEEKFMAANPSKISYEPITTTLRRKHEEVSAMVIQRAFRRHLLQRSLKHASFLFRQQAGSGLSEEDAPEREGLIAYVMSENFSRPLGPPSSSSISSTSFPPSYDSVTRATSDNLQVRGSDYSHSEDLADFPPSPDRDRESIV
Sequence of Cytochrome P450 2C19 (P33261 whole entry): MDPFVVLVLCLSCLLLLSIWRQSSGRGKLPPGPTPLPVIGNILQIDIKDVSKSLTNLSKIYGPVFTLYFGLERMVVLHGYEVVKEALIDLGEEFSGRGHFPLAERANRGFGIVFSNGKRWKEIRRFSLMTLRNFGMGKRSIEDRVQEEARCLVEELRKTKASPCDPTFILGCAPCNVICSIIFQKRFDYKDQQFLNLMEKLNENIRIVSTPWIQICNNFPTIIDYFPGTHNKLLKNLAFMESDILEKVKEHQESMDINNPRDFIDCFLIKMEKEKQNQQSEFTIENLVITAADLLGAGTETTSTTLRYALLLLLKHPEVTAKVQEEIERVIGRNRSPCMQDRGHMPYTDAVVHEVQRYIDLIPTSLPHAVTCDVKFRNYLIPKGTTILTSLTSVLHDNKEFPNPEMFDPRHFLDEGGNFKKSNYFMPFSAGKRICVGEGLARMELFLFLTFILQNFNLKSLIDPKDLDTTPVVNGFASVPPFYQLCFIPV

Cl.N[C@@H]1CCC=C(c2ccc(F)cc2)[C@H]1CNc1cc(F)c(S(=O)(=O)Nc2cscn2)cc1Cl
Vd [1]: 5.77 L/kg
IC50 [2]: 0.088 µM
clearance [3]: 19.8 mL/min/kg
Vd [4]: 5.77 L/kg
AUC [5]: 4.86 µM·h
bioavailability [6]: 30%
C0 [7]: 2800 nM
half-life [8]: 3.64 h
clearance [9]: 19.8 mL/min/kg
AUC(0-t) [10]: 4.92 µM·h
Cmax [11]: 660 nM
Tmax [12]: 2.67 h
half-life [13]: 3.39 h
AUC(0-t) [14]: 4.86 µM·h
fAUClast (Rattus norvegicus [15]): 0.141 µM·h
pKa [16]: 7.09 to 9.18
IC50 [17]: 4.02 µM
IC50 [18]: 2.9 µM
fraction unbound at 4 h, 2 µM [19]: 0.004
fraction unbound at 4 h, 2 µM [20]: 0.029
CLint scaled at 1 µM [21]: 17.5 mL/min/kg
CLint scaled at 1 µM [22]: 30.4 mL/min/kg
inhibition (Rattus norvegicus [23]): Active
inhibition (Rattus norvegicus [24]): inactive
Activity (Rattus norvegicus [25]): Active
concentration at 1 h [26]: 3740 nM
concentration at 2 h [27]: 3820 nM
concentration at 4 h [28]: 3160 nM
Cp(f) [29]: 108 nM
Cp(f) [30]: 110 nM
Cp(f) [31]: 91 nM
Drug uptake [32]: 3.1 µM/g
Ratio IC50 (Homo sapiens [33]): > 30
Ratio IC50 (Homo sapiens [34]): > 30
IC50 (Cytochrome P450 1A2): > 50 µM
IC50 (Cytochrome P450 2C9): 11.8 µM
IC50 (Cytochrome P450 2C19): 26.2 µM
IC50 (Cytochrome P450 2D6): 3 µM
IC50 (Cytochrome P450 3A4): 33 µM
IC50 [35]: 4.6 µM
Papp A→B at 2 h, 2 µM (in vitro [36]): 0.04 ×10⁻⁶ cm/s
efflux ratio at 2 h, 2 µM (in vitro [37]): 251
logD (physchem [38]): 1.5
solubility thermodynamic (physchem [39]): 135 µM

N[C@@H]1CCC=C(c2ccc(F)cc2)[C@H]1COc1cc(F)c(S(=O)(=O)Nc2cscn2)cc1Cl
Kp at 2 h [40]: 0.13
clearance [3]: 39 to 39.2 mL/min/kg
Vd [4]: 8.91 L/kg
AUC [41]: 0.25 µM·h
C0 [42]: 410 nM
Cmax [43]: 50 nM
half-life [44]: 2.74 h
fAUClast (Rattus norvegicus [45]): 0.005 µM·h
pKa [16]: 6.13 to 9.05
IC50 [18]: 4 µM
fraction unbound at 4 h, 2 µM [19]: 0.008
fraction unbound at 4 h, 2 µM [20]: 0.02
Drug uptake [46]: Active
